# PMC6198970, “Safety, efficacy, and dose response of the maturation inhibitor GSK3532795 (formerly known as BMS-955176) plus tenofovir/emtricitabine once daily in treatment-naive HIV-1-infected adults: Week 24 primary analysis from a randomized Phase IIb trial” (PLoS ONE, 2018)
# “And” between values parts separate entries of the source, which are not always exact repeats. Equal entries are not always repeated. Where two headings read alike, the source gives them in different places.
# Experiments:
# [1] = system: human immunodeficiency virus type-2 (HIV-2) isolates; design: method as in protocol Section 1.4.1.2; conditions: active against 1 of 3 HIV-2 isolates; ref protocol Section 1.4.1.2; cited from earlier work
# [2] = system: HIV-1; design: method as in protocol Section 1.4.1.2; conditions: with representative drugs from NRTI, NNRTI, PI, and INI classes; ref protocol Section 1.4.1.2; cited from earlier work
# [3] = ref protocol Section 1.4.1.2, cited from earlier work
# [4] = Population PK model (NONMEM); assay type: in vivo, HIV-1-infected adults
# Protocol: Population PK analyses were conducted via non-linear mixed effects using non-linear mixed-effects modeling (NONMEM) software, version 7, level 2.0 (ICON Development Solutions, Hanover, Maryland, USA).[17] A summary of the population PK modeling methods and exposure response exploratory analyses for efficacy and safety is included in Supporting information.
# Population pharmacokinetic (PK) analyses were conducted via nonlinear mixed-effects modelling using nonlinear mixed effects modeling (NONMEM) software, version 7, level 2.0 (ICON Development Solutions, Hanover, MD). Assessment of model adequacy and decision about increasing model complexity was driven by the data and guided by goodness-of-fit criteria, including visual inspection of diagnostic scatter plots (observed versus predicted concentration, residual/weighted residual versus predicted concentration or time and histograms of individual random effects, for example), successful convergence of the minimization routine, plausibility of parameter estimates, precision of parameter estimates, correlation between model parameter estimation errors < 0.95, and the Akaike information criterion (AIC), given the minimum objective function value and number of estimated parameters. An exploratory investigation of covariate-parameter relationships was undertaken as part of the population PK analysis. Predictive performance was assessed using stratified non-parametric bootstrapping (n=500). Following the construction of a suitable PK model, individual-specific steady-state exposure metrics were derived for exposure-response investigation. An exploratory plotting analysis was performed to investigate exposure–response relationships for efficacy and safety endpoints, where endpoints including fraction of participants with <40 c/mL at Week 24 (modified intent-to-treat population) and percentage of participants with Grade 1, 2, 3, and 4 gastrointestinal events (adverse events >7 days) were analysed as a function of exposure quantiles.
# [5] = design: method as in AI468001 and AI468002; conditions: same doses and formulation; ref AI468001 and AI468002; listed as BMS-955176; cited from earlier work
# [6] = system: HIV-1 protease; design: method as in protocol Section 1.4.1.2; conditions: ref protocol Section 1.4.1.2; cited from earlier work
# [7] = design: method as in protocol Section 1.4.1.2; conditions: local lymph node assay in the mouse; ref protocol Section 1.4.1.2; cited from earlier work
# [8] = cited from earlier work
# [9] = system: HIV-1; conditions: ref AI468002, cited from earlier work
# [10] = system: HIV-1 clinical isolates; conditions: cited from earlier work
# [11] = design: method as in protocol Section 1.4.1.2; conditions: 100% human serum; ref protocol Section 1.4.1.2; listed as BMS-955176; cited from earlier work
# [12] = system: CYP1A2, CYP2B6, CYP3A4; design: method as in protocol Section 1.4.1.2; conditions: ref protocol Section 1.4.1.2; cited from earlier work
# [13] = system: OCT2; design: method as in protocol Section 1.4.1.2; conditions: preliminary data; ref protocol Section 1.4.1.2; cited from earlier work
# [14] = design: method as in protocol Section 1.4.1.2; conditions: 80 mg/kg/day, ref protocol Section 1.4.1.2, cited from earlier work
# [15] = Clinical laboratory evaluations; assay type: in vivo, HIV-1-infected adults
# Protocol: Physical examinations, measurement of vital signs, and clinical laboratory evaluations were performed at Weeks 4, 8, 12, 16 and 24, and participants were closely monitored for AEs and SAEs throughout. AEs were classified according to MedDRA version 19.0. The severity and relationship to study drug was assessed by the local investigator.
# [16] = system: HIV-1; conditions: 40% HS supplemented with additional human serum albumin; ref protocol Section 1.4.1.2; cited from earlier work
# [17] = Part A, clade B, 10 days monotherapy, 5 mg
structure (smiles),measurement,setting,value
C=C(C)[C@@H]1CC[C@]2(NCCN3CCS(=O)(=O)CC3)CC[C@]3(C)[C@H](CC[C@@H]4[C@@]5(C)CC=C(c6ccc(C(=O)O)cc6)C(C)(C)[C@@H]5CC[C@]43C)[C@@H]12 [GSK3532795],EC50,[1],15 nM
same,Effect of 2-drug combinations,[2],additive to synergistic effects
same,AUC at NOAEL,[3]; 1 mg/kg/day,64.9 gh/mL
same,AUC at lowest dose with effects,[3]; 3 mg/kg/day,135 gh/mL
same,NOAEL,"[3]; dog 9-month, stomach histologic changes",1 mg/kg/day
same,Reduction in clearance in African-American participants,[4]; compared with White participants,23%
same,Additive residual error,[4]; final population PK model,37400
same,"First-order absorption rate (Ka), estimate",[4]; final population PK model,0.0236 h⁻¹
same,Interindividual variance of CL,[4]; final population PK model,0.0610
same,Interindividual variance of Ka,[4]; final population PK model,0.164
same,Interindividual variance of V,[4]; final population PK model,0.462
same,Interoccasion variance of F1,[4]; final population PK model,0.0512
same,Proportional residual error,[4]; final population PK model,0.0165
same,clearance,"[4]; human, in vivo, oral, final population PK model, read-out: Clearance (CL), estimate (converted)",37.3 mL/min
same,Vd,"[4]; human, in vivo, oral, final population PK model, read-out: Volume of distribution (V), estimate",5.58 L
same,Increase in clearance in participants with Grade ≥2 diarrhea,[4]; relative to no diarrhea,18%
same,Exposures lower in HIV-1-infected subjects compared to healthy subjects,[5],35%
same,Direct inhibition of HIV-1 protease,[6],does not directly inhibit HIV-1 protease
same,Skin sensitization,[7],not a skin sensitizer
same,Increase in serum ALT activity,"[8]; 20 mg/kg/day, 1 female, ref protocol Section 1.4.1.2",2.10 × pretest
same,Loss of body weight,"[8]; 20 mg/kg/day, 2 females, ref protocol Section 1.4.1.2",up to 8%
same,NOAEL,"[8]; dog, in vivo",8 mg/kg/day
same,NOAEL dose (heart rate),"[8]; dog, in vivo",20 mg/kg/day
same,"Maximum decline log10 HIV-1 RNA, max","[9]; Part A, 10 mg",-1.76 Log10
same,"Maximum decline log10 HIV-1 RNA, mean","[9]; Part A, 10 mg",-1.05 Log10
same,"Maximum decline log10 HIV-1 RNA, median","[9]; Part A, 10 mg",-0.976 Log10
same,"Maximum decline log10 HIV-1 RNA, min","[9]; Part A, 10 mg",-0.64 Log10
same,"Maximum decline log10 HIV-1 RNA, max","[9]; Part A, 20 mg",-2.12 Log10
same,"Maximum decline log10 HIV-1 RNA, mean","[9]; Part A, 20 mg",-1.17 Log10
same,"Maximum decline log10 HIV-1 RNA, median","[9]; Part A, 20 mg",-1.115 Log10
same,"Maximum decline log10 HIV-1 RNA, min","[9]; Part A, 20 mg",-0.13 Log10
same,"Maximum decline log10 HIV-1 RNA, max","[9]; Part A, 40 mg",-1.88 Log10
same,"Maximum decline log10 HIV-1 RNA, mean","[9]; Part A, 40 mg",-1.55 Log10
same,"Maximum decline log10 HIV-1 RNA, median","[9]; Part A, 40 mg",-1.701 Log10
same,"Maximum decline log10 HIV-1 RNA, min","[9]; Part A, 40 mg",-0.93 Log10
same,"Maximum decline log10 HIV-1 RNA, max","[9]; Part A, 80 mg",-1.82 Log10
same,"Maximum decline log10 HIV-1 RNA, mean","[9]; Part A, 80 mg",-1.52 Log10
same,"Maximum decline log10 HIV-1 RNA, median","[9]; Part A, 80 mg",-1.555 Log10
same,"Maximum decline log10 HIV-1 RNA, min","[9]; Part A, 80 mg",-1.04 Log10
same,"Maximum decline log10 HIV-1 RNA, max","[9]; Part A, 120 mg",-2.07 Log10
same,"Maximum decline log10 HIV-1 RNA, mean","[9]; Part A, 120 mg",-1.53 Log10
same,"Maximum decline log10 HIV-1 RNA, median","[9]; Part A, 120 mg",-1.654 Log10
same,"Maximum decline log10 HIV-1 RNA, min","[9]; Part A, 120 mg",-0.83 Log10
same,"Maximum decline log10 HIV-1 RNA, max",[9]; [17],-0.78 Log10
same,"Maximum decline log10 HIV-1 RNA, mean",[9]; [17],-0.49 Log10
same,"Maximum decline log10 HIV-1 RNA, median",[9]; [17],-0.498 Log10
same,"Maximum decline log10 HIV-1 RNA, min",[9]; [17],-0.22 Log10
same,"Maximum decline log10 HIV-1 RNA, max","[9]; Part C, clade C, 40 mg",-2.03 Log10
same,"Maximum decline log10 HIV-1 RNA, median","[9]; Part C, clade C, 40 mg",-1.285 Log10
same,"Maximum decline log10 HIV-1 RNA, min","[9]; Part C, clade C, 40 mg",-1.04 Log10
same,"Maximum decline log10 HIV-1 RNA, mean","[9]; Part C, clade C, 10 days monotherapy, 40 mg",-1.5 Log10
same,Safety in Phase 2a,"[9]; alone or with ATV ± RTV for 10-28 days, preliminary","no deaths, SAEs, or AEs leading to discontinuation"
same,Median maximal reductions in HIV-1 RNA,"[9]; doses 40 mg SDD once daily and above, clade B and clade C",> 1 log10
same,EC50,"[10]; PBMCs, CRF01_AE subtype, N = 7, ref protocol Section 1.4.1.2",77 nM
same,"Fold less susceptible, CRF01_AE (clade AE) compared to clade B","[10]; in vitro, ref protocol Section 1.4.1",2-3 fold
same,Protein binding,[11],86% and 86.1%
same,"Induction of CYP1A2, CYP2B6, or CYP3A4",[12],not an inducer
same,Inhibition of OCT2,[13],does not inhibit OCT2
same,AUC,[14],3.26 gh/mL
same,Developmental toxicity classification,[14]; rabbits,not a developmental toxicant
same,Grade 3 low potassium,[15]; 60 mg arm,one participant
same,"Mean total cholesterol, direction of change","[15]; 120 mg arm, baseline to Week 24",decreased
same,Grade 3 laboratory abnormalities in triglycerides and creatinine clearance (CrCl),[15]; 180 mg arm,one participant each
same,Grade 3 liver chemistry abnormalities,[15]; GSK3532795 arms,three participants
same,Mean decrease in triglyceride levels,"[15]; range across all GSK3532795 arms, baseline to Week 24",5.0 to 12.9 mg/dL
same,Reduction of antiviral activity,[16],approximately 4 fold
